Laboratory results taken from US11028084B2, “Selective inhibitors of gentotoxic steress-induced IKK/NF-κB pathways” (Max-Delbrück-Centrum für Molekulare Medizin in der …, priority 2016, dated 2021).

Assays:
[1] = target: T1, nuclear IKKγ-PIASy-PARP1-ATM signalosome (Mus musculus, UniProt O88522+P11103+Q62388+Q9JM05); experiment: Nuclear PARP1-signalosome formation, IKKγ co-immunoprecipitation, MEF cells; assay type: cell-based; details: irradiation
T1 construct: endogenous in cells; host or cells: MEF (mouse embryonic fibroblasts)
T1 sequence (O88522 whole entry): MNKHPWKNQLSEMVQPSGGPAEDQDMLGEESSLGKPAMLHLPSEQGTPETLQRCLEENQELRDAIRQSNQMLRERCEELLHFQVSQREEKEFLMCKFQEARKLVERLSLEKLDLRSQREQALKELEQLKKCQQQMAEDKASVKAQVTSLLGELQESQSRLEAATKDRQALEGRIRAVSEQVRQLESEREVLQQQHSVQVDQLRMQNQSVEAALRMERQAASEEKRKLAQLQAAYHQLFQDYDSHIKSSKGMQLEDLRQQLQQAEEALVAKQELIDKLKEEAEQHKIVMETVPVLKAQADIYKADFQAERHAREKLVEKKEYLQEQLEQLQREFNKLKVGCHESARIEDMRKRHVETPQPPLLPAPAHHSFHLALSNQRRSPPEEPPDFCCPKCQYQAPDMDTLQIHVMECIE
T1 sequence (Q9JM05 2-507 limits assumed): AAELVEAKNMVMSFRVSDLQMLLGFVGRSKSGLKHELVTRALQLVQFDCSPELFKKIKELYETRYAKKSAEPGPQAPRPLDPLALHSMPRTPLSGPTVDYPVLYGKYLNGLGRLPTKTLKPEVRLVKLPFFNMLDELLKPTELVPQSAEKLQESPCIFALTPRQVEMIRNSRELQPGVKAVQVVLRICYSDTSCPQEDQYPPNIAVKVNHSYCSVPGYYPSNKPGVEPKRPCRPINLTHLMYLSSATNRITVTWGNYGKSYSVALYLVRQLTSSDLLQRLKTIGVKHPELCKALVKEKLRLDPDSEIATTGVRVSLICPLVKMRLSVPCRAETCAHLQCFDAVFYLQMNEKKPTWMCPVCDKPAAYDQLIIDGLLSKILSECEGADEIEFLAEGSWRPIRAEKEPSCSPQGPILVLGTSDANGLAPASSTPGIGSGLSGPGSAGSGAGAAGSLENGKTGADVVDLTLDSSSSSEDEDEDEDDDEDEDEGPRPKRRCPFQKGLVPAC
T1 sequence (P11103 2-1013 limits assumed): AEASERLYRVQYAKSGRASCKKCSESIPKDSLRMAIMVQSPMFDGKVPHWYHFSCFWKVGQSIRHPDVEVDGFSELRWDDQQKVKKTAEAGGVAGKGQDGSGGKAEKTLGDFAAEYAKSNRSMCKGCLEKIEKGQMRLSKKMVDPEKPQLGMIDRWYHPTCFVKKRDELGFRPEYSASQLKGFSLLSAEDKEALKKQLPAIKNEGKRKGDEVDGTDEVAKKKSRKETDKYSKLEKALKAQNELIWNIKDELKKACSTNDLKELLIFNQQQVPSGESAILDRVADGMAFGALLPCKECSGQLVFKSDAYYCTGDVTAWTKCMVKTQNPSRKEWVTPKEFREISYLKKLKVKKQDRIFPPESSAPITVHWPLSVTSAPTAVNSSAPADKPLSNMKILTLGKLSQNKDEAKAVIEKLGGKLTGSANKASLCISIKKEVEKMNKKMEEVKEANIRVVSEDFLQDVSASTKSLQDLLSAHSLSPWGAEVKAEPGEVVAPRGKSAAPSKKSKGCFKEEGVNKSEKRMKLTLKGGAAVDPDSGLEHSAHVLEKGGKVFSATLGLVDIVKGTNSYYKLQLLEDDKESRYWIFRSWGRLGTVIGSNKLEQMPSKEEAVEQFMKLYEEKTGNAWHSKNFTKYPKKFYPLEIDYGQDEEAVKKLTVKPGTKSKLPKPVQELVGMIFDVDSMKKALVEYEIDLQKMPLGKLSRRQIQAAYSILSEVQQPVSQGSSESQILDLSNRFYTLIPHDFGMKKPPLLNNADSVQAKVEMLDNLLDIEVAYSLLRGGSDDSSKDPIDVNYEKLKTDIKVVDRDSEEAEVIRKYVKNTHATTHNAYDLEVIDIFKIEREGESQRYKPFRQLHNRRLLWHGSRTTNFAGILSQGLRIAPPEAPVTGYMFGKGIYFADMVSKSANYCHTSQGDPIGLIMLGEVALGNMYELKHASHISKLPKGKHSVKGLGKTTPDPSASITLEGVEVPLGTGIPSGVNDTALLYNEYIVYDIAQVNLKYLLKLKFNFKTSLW
T1 sequence (Q62388 2-3066 limits assumed): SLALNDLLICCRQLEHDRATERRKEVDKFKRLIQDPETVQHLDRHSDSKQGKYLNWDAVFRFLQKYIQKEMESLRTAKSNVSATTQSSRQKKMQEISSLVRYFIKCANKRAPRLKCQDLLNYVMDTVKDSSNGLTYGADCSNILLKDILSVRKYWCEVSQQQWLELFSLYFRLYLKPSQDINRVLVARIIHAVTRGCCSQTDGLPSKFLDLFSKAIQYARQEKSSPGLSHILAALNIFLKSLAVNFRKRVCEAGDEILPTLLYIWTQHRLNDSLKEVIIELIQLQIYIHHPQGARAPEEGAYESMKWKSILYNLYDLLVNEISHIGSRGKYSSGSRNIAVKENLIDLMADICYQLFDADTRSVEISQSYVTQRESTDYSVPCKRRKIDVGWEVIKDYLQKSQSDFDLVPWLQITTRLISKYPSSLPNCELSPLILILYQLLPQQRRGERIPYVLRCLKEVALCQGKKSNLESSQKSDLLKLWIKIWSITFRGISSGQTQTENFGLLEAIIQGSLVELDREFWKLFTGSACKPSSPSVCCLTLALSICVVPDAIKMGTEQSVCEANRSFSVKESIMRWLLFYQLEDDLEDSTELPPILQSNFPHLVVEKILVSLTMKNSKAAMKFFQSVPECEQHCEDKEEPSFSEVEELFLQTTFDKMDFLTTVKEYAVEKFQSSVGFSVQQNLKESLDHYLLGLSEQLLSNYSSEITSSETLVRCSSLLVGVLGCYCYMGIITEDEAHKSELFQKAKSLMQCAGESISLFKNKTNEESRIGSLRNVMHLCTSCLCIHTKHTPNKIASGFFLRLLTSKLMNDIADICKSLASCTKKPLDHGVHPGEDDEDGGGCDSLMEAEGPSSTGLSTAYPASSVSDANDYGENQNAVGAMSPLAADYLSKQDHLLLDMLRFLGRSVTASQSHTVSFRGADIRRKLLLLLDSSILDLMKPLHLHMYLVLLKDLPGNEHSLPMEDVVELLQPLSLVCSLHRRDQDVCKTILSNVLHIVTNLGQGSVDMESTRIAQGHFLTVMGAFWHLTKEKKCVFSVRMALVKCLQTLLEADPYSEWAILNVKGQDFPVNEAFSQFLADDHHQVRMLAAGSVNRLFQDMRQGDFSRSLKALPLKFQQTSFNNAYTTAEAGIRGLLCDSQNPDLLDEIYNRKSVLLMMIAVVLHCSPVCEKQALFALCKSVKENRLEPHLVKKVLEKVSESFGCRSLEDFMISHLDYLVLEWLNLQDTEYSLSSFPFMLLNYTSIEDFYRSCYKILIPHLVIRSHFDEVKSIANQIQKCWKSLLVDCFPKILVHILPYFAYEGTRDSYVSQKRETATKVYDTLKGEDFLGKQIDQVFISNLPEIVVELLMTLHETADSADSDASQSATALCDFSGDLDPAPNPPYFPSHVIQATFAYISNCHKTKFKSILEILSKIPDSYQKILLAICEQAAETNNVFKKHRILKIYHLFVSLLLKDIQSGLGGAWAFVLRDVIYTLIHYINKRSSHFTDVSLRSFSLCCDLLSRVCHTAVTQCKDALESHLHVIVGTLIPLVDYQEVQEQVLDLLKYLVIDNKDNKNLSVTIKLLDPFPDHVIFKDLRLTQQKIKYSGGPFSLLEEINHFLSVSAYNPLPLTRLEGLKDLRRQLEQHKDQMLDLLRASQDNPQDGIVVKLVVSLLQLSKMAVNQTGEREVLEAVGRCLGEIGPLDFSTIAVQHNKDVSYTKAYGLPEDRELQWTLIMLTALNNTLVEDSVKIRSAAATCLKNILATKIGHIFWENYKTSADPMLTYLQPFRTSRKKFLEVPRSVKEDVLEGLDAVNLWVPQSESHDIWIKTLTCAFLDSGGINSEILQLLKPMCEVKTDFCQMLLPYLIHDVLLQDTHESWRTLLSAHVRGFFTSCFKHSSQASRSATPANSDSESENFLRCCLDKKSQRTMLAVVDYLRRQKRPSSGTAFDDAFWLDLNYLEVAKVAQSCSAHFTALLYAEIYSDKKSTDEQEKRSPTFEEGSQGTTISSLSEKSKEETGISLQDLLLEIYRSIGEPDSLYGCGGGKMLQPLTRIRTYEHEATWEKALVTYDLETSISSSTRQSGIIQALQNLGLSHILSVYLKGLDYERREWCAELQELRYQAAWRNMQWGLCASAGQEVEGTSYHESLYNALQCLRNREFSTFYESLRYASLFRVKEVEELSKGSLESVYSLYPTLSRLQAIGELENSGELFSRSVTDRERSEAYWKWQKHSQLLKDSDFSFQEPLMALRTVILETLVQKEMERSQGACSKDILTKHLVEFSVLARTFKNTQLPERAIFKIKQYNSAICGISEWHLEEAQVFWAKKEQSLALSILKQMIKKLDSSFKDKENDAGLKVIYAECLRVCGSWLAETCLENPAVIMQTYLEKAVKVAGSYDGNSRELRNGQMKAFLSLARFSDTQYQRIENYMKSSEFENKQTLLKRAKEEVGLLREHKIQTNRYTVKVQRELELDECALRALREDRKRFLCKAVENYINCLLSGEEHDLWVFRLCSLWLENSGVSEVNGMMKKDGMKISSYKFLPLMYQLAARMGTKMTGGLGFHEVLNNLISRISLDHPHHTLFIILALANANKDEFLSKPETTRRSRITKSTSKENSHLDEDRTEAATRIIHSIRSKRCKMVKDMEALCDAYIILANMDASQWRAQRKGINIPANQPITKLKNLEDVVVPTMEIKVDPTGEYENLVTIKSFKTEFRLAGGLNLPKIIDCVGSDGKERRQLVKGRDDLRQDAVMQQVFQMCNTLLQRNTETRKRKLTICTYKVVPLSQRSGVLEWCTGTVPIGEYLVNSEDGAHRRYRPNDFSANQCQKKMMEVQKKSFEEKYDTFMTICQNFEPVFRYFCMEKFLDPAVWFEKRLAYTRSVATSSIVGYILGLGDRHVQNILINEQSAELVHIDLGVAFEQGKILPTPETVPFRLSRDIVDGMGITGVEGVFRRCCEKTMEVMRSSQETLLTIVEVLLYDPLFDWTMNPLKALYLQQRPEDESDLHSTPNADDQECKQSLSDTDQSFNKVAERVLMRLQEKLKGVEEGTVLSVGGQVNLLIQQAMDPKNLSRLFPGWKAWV
Experimental: FIG. 8: (A) HepG2 cells were pre-treated with DMSO or MW01 and irradiated. Nuclear cell extracts (NE) were used for PIASy immunoprecipitation (IP). Western blot membranes were incubated with indicated antibodies. (B) Experiment as shown in (A), but with IKKγ IP. (C) Experiment as shown in (B), but done in HEK293 cells. (D) Experiment done as shown in […], but repeated in MEF cells.
Following cell lysis the protein concentration of samples was determined. For input controls, 40 μg lysate were mixed with 6×SDS-buffer and denatured by heating to 95° C. for 4 min. Approximately 1500 μg protein lysate was used for pulldown and samples volumes were equalled with lysis buffer. Lysates were precleared with 30 μl sepharose A or sepharose G beads (depending on the antibody type used for pulldown) for 30 min, and centrifuged for 5 min at 1,500×g. The supernatant was transferred to a new reaction tube. Primary antibody (2-2.5 μg) was added to the cleared lysate for immunoprecipitation overnight while rotating at 4° C. The next day 30 μl sepharose beads per sample were used for immobilisation of antibodies. Following 4 washes with IP wash buffer precipitated proteins were eluted by mixing with 3×SDS-buffer and heating to 95° C. for 4 min.

[2] = test system: TNFα-induced canonical NF-κB activation; experiment: TNFα-induced p65 nuclear translocation (counter screening), U2OS cells; assay type: cell-based, human; details: different concentrations
Experimental: FIG. 4: (A) U2OS cells were pre-treated with increasing concentrations of MW01 in triplicates in a 384 well plate. Then, cells were treated with TNFα, fixed and subjected to IF staining of p65. Spatial measurement of p65 cytosolic and nuclear signals was used for the calculation of p65 translocation rates. (B) U2OS cells were pre-treated with MW01 at concentrations of 10 or 20 μM and stimulated with TNFα. Cell lysates were subjected to SDS-PAGE/WB. (C) HEK293 cells were pre-treated with DMSO or MW01 followed by administration of etoposide or TNFα. Cell lysates were used for EMSA.
For the activation of the canonical NF-κB pathway cells were treated with recombinant human TNFα (10 ng/ml) or IL-1β (10 ng/ml) for 20-30 min at 37° C.
(§1) For immunofluorescence staining 0.95×10^5 cells were seeded in 6 well plates onto autoclaved cover slips. Cellular confluency dictated to beginning of the experiment (2-3 days from seeding). After conduction of experiments cells were washed with PBS and fixed with 4% PFA/double-distilled H2O (ddH2O) for 10 min at RT. Following two additional washing steps cells were incubated with a solution containing 0.12% glycine/0.2% saponin in PBS for 10 min and then blocked with a solution containing 10% FCS/0.2% saponin in PBS for 1 h. Primary antibody incubation was performed overnight at 4° C. (1:500 diluted in 0.2% saponin in PBS). […]

[3] = test system: ATM cytoplasmic translocation; experiment: Cytoplasmic accumulation of ATM, fractionation experiment (NE/CE) with WB, HepG2 cells; assay type: cell-based, human; details: 5 μM
Experimental: (§2) FIG. 7: Cytoplasmic accumulation of ATM. (A) Fractionation experiment with separated nuclear extracts (NE) and cytoplasmic extracts (CE). PARP1 and LDH staining served as loading and fractionation controls. Cells were pre-treated with DMSO or MW01 (5 μM) prior to irradiation and cell harvesting at indicated times. NE and CE were subjected to SDS-PAGE/WB procedure. (B) U2OS cells were seeded on cover slips 2 days before treatment. The cells were pre-treated with solvent DMSO alone or with MW01 prior to irradiation, cell fixation and subsequent immunofluorescence staining.
For the preparation of nuclear and cytoplasmic fractions, cells were lysed with buffer A (supplemented with 1 mM DTT, 10 mM NaF, 20 mM β-glycerophosphate, 250 nM NaVO3, complete protease inhibitor cocktail (Roche) and 50 nM calyculin A. Lysates were adjusted to a final concentration of 0.2% NP-40, vortexed for 10 s and spun down. The supernatant, representing the cytoplasmic extract (CE), was transferred into a new 1.5 ml reaction tube. The pellet was washed with buffer A, was resuspended with buffer C and shaken for 20 min at 4° C. Following 10 min of centrifugation at 14,000 rpm, the supernatant, representing the nuclear extract (NE), was transferred into a new reaction cap.

[4] = test system: ATM cytoplasmic translocation; experiment: ATM relocalisation upon DNA DSB, immunofluorescence, U2OS cells; assay type: cell-based, human
Experimental: as §2
as §1, with “PBS). The next day, cover slips were washed five times with a solution containing 0.2% saponin in PBS.” for “PBS).”

HEK293 cells = experiment: Crystal violet staining (cell number), HEK293 cells; assay type: cell-based, human
Experimental: FIG. 16: (A) U2OS cells were pre-treated with DMSO or MW01 and irradiated. Cells were lysed 8 h post γ-IR and were used for western blotting and immunochemical staining. (B) HEK293 cells were pre-treated with DMSO or MW01 and irradiated. After 48 h cells were fixed and stained with crystal violet. Dissolved crystal violet was used for absorbance measurement in a visible light spectrophotometer at a wavelength of 595 nm. (C) HEK293 cells were pre-treated with DMSO or MW01 and irradiated. The percentage of viable cells within the population was calculated by exclusion of annexin V and propidium-iodide positive cells measured by flow cytometry. (D) MEF cells were pre-treated with DMSO or MW01 and irradiated. Cells were used for annexin V staining 24 h and 48 after γ-IR. Percentage of annexin V positive cell population was analysed using a flow cytometer. (E) Experiment done as shown in (D) but with HT1080 cells processed 8 h after irradiation. Statistical significance was calculated using students t-test.
For crystal violet staining, cells were washed with ice-cold PBS and fixed with 4% PFA in PBS for 15 min under a fume hood. After washing with PBS, cells were stained with 0.1% crystal violet for 20 min at RT. […] Then, 0.25 ml of stain was diluted 1:4 in ddH2O and absorbance was measured at 595 nm using a spectrophotometer against 10% acetic acid as blank.

SMILES: COc1ccc2c(c1OC)c(=O)n1c3ccc(O)cc3c3ccnc2c31 [MW01, 12-hydroxy-6,7-dimethoxy-8H-benzo[c]indolo[3,2,1-ij][1,5]naphthyridin-8-one]
- interaction of IKKγ with PARP1, p-ATM S1981 or PIASy [1]: abrogation of the interaction
- effect on p65 nuclear translocation / NF-κB activation after TNFα stimulation [2]: did not interfere with p65 nuclear translocation rates
- accumulation of total ATM in the cytoplasm ([3]; 45 min after irradiation): inhibited the accumulation of ATM in the cytoplasm
- detection of phosphorylated ATM in nuclear extracts ([3]; 45 min and 90 min after irradiation): did not affect
- detection of activated ATM species in the cytoplasmic extracts ([3]; after irradiation): abolished
- ATM localisation after irradiation (IF) [4]: predominantly localized within the nucleus
- cell number compared to the DMSO/IR control (HEK293 cells; HEK293, 48 h after irradiation): significant effect on further reduction in cell number
- cell number in comparison to DMSO treated samples (HEK293 cells; HEK293, not irradiated): reduced the cell number
